This assay has as its target Replicase polyprotein 1a (Severe acute respiratory syndrome coronavirus 2, UniProt P0DTC1). Description: Evaluation of the in Vitro Anti-Novel Coronavirus Mpro Protease Activity. How it is done:
The compound was dissolved in DMSO, and diluted in a 3-fold gradient with Echo655 according to the concentration requirements to 10 concentration points, and duplicate tests were set at each concentration, and the diluted solution was added to a 384-well plate. Mpro protein and substrate were diluted with test buffer (100 mM NaCl, 20 mM Tris-HCl, 1 mM EDTA), and Mpro protein was added to the 384-well test plate, incubated with the compound for 30 min at room temperature, and then the substrate was added thereto, and the test concentration of Mpro protein was 25 nM, and the test concentration of substrate was 25 µM. After incubating for 60 minutes in a 30° C. constant temperature incubator, the fluorescence signal value of Ex/Em=340 nm/490 nm was detected by microplate reader. At the same time, the background well containing the substrate and compound but not containing Mpro protein was detected as control.

On to `N#C[C@H](C[C@@H]1CCNC1=O)NC(=O)[C@@H]1[C@H]2CC[C@H](C2)N1C(=O)[C@@H](NC(=O)C(F)(F)F)C1CCCCC1` [US20230312571, Compound 2], for which the midpoint of inhibition, the IC50, lay at 249 nM. This counts as sub-micromolar.

The values are drawn from BindingDB's records for patent US20230312571 (Fujian Akeylink Biotechnology, 2023).
